From US20240174674A1, “NITROGEN-CONTAINING POLYCYCLIC FUSED RING COMPOUND, PHARMACEUTICAL COMPOSITION THEREOF, PREPARATION METHOD THEREFOR, AND USE THEREOF” (APPLIED PHARMACEUTICAL SCIENCE, INC., priority 2021, published 2024)
Where two headings read alike, the source gives them in different places.

Tests used:
RET-wt = RET-wt (Homo sapiens (Human), UniProt P07949); assay: HTRF KinEASE-TK kinase activity test, RET-wt; assay type: biochemical; details: for IC50: HTRF kinase assay; for inhibitory activity against RET-wt compared to that of cabozantinib: versus cabozantinib
RET V804M = RET V804M (Homo sapiens (Human), UniProt P07949, V804M); assay: HTRF KinEASE-TK kinase activity test, RET V804M; assay type: biochemical; details: for IC50: HTRF kinase assay; for inhibitory activity against RET V804M compared to that of cabozantinib: versus cabozantinib
RET G810R = RET G810R (Homo sapiens (Human), UniProt P07949, G810R); assay: HTRF KinEASE-TK kinase activity test, RET G810R; details: for inhibitory activity against RET G810R relative to that of selpercatinib (LOXO-292): fold versus selpercatinib (LOXO-292)
[1] = read-out: RET G810R IC50, HTRF kinase assay

Sequence of RET G810R (P07949 29-1114 G810R): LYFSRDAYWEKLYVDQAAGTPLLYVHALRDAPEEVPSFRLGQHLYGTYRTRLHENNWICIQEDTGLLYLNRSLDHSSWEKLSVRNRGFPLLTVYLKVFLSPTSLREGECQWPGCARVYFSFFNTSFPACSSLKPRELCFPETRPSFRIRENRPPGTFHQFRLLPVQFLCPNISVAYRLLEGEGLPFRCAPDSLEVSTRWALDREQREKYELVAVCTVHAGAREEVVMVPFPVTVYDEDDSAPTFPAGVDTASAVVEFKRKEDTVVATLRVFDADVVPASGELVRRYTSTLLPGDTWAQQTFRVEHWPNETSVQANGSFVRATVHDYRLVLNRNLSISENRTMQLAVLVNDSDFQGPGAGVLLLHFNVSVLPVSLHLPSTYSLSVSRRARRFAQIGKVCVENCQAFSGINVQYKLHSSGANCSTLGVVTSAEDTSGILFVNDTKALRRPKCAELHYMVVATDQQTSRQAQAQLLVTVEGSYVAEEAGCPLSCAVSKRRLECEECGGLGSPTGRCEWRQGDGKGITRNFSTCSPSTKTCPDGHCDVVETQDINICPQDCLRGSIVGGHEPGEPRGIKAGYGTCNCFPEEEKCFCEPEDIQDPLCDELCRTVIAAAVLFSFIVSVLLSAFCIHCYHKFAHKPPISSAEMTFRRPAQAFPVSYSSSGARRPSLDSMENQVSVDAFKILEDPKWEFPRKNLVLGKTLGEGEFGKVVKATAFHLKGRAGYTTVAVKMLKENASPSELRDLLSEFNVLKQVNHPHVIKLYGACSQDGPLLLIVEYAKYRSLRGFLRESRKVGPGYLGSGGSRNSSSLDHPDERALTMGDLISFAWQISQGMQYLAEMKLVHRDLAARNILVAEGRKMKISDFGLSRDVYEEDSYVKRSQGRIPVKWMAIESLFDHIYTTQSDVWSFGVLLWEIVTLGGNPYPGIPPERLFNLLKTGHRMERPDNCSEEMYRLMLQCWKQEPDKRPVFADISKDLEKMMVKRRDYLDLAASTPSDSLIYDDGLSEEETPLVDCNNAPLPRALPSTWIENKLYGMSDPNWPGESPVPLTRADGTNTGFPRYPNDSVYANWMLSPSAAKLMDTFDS
Sequence of RET-wt (P07949 29-1114): as the sequence (P07949 29-1114 G810R) above, with R782G counted along it
Sequence of RET V804M (P07949 29-1114 V804M): as the sequence (P07949 29-1114 G810R) above, with V776M, R782G counted along it

SMILES | IC50 (RET-wt) [nM] | inhibitory activity against RET-wt compared to that of cabozantinib (RET-wt) | IC50 (RET V804M) [nM] | inhibitory activity against RET V804M compared to that of cabozantinib (RET V804M) | inhibitory activity against RET G810R relative to that of selpercatinib (LOXO-292) (RET G810R) [times] | IC50 (RET G810R; [1]) [nM] | IC50 (RET G810R) [nM]
CCOc1cc(-c2ccc(N3CCC(C)(NC(=O)c4ncccc4Cl)CC3)nc2)c2c3cn[nH]c3nn2c1 [Compound 3, 3-chloro-N-(1-(5-(6-ethoxy-1H-pyrazolo[3′,4′:3,4]pyrazolo[1,5-α]pyridin-4-yl)pyridin-2-yl)-4-methylpiperidin-4-yl)-2-picolinamide] | 0.1 | significantly superior | 0.1 | significantly superior | ≥ 10 | 2.9 | –
CCOc1cc(-c2ccc(N3CCC(C)(NC(=O)c4ncc(F)cc4Cl)CC3)nc2)c2c3cn[nH]c3nn2c1 [Compound 4] | 0.1 | significantly superior | 0.03 | significantly superior | ≥ 10 | 2.3 | –
CCOc1cc(-c2ccc(N3CCC(CO)(NC(=O)c4c(F)cccc4F)CC3)nc2)c2c3cn[nH]c3nn2c1 [Compound 11, N-(1-(5-(6-ethoxy-1H-pyrazolo[3′,4′:3,4]pyrazolo[1,5-α]pyridin-4-yl)pyridin-2-yl)-4-(hydroxymethyl)piperidin-4-yl)-2,6-difluorobenzamide] | 0.1 | significantly superior | 0.1 | significantly superior | ≥ 10 | 0.36 | –
CCOc1cc(-c2ccc(N3CC[C@H](NC(=O)CC(C)C)[C@@H](O)C3)nc2)c2c3cn[nH]c3nn2c1 [Compound 39] | 0.1 | significantly superior | 0.1 | significantly superior | – | 4.2 | –
CCOc1cc(-c2ccc(N3CC[C@H](NC(=O)C4(C(F)(F)F)CCC4)[C@@H](O)C3)nc2)c2c3cn[nH]c3nn2c1 [Compound 41] | 0.1 | significantly superior | 0.1 | significantly superior | ≥ 10 | 2.8 | –
CCOc1cc(-c2ccc(N3CC[C@H](NC(=O)c4ncccc4Cl)[C@H](O)C3)nc2)c2c3cn[nH]c3nn2c1 [Compound 42] | 0.1 | significantly superior | 0.05 | significantly superior | ≥ 10 | 1.4 | –
CCOc1cc(-c2ccc(N3CC[C@H](NC(=O)c4c(F)cccc4Cl)[C@@H](O)C3)nc2)c2c3cn[nH]c3nn2c1 [Compound 44, 2-chloro-N-((3S,4S)-1-(5-(6-ethoxy-1H-pyrazolo[3′,4′:3,4]pyrazolo[1,5-α]pyridin-4-yl)pyridin-2-yl)-3-hydroxypiperidin-4-yl)-6-fluorobenzamide] | 0.1 | significantly superior | 0.1 | significantly superior | ≥ 10 | 0.8 | –
CCOc1cc(-c2ccc(N3CC[C@H](NC(=O)c4cc(F)ccc4C)[C@@H](O)C3)nc2)c2c3cn[nH]c3nn2c1 [Compound 46] | 0.1 | significantly superior | 0.06 | significantly superior | ≥ 10 | 1.6 | –
CCOc1cc(-c2ccc(N3CC[C@H](NC(=O)OC(C)(C)C)[C@@H](O)C3)nc2)c2c3cn[nH]c3nn2c1 [Compound 88, Tert-butyl ((3S,4S)-1-(5-(6-ethoxy-1H-pyrazolo[3′,4′:3,4]pyrazolo[1,5-α]pyridin-4-yl)pyridin-2-yl)-3-hydroxypiperidin-4-yl)carbamate] | 0.1 | significantly superior | 0.2 | significantly superior | – | 7.8 | –
O=C(N[C@H]1CCN(c2ccc(-c3cc(OCC(F)F)cn4nc5[nH]ncc5c34)cn2)C[C@H]1O)c1cc(F)ccc1Cl [Compound 293, N-((3R,4S)-1-(5-(6-(2,2-difluoroethoxy)-1H-pyrazolo[3′,4′:3,4]pyrazolo[1,5-α]pyridin-4-yl)pyridin-2-yl)piperidin-3-hydroxypiperidin-4-yl)-2-chloro-5-fluorobenzamide] | – | – | – | – | ≥ 10 | 1.6 | –
CCOc1cc(-c2ccc(N3CC[C@H](NC(=O)c4c(F)cccc4F)[C@@H](O)C3)nc2)c2c3cn[nH]c3nn2c1 [Compound 294, N-((3S,4S)-1-(5-(6-ethoxy-1H-pyrazolo[3′,4′:3,4]pyrazolo[1,5-α]pyridin-4-yl)pyridin-2-yl)-3-hydroxypiperidin-4-yl)-2,6-difluorobenzamide] | – | – | – | – | – | 4.1 | –
O=C(N[C@H]1CCN(c2ccc(-c3cc(OCCF)cn4nc5[nH]ncc5c34)cn2)C[C@@H]1O)c1c(F)cccc1F [Compound 295, N-((3S,4S)-1-(5-(6-(2-fluoroethoxy)-1H-pyrazolo[3′,4′:3,4]pyrazolo[1,5-α]pyridin-4-yl)pyridin-2-yl)-3-hydroxypiperidin-4-yl)-2,6-difluorobenzamide] | – | – | – | – | ≥ 10 | 2.1 | –
O=C(N[C@H]1CCN(c2ccc(-c3cc(OCC(F)F)cn4nc5[nH]ncc5c34)cn2)C[C@@H]1O)c1c(F)cccc1F [Compound 296, N-((3S,4S)-1-(5-(6-(2,2-difluoroethoxy)-1H-pyrazolo[3′,4′:3,4]pyrazolo[1,5-α]pyridin-4-yl)pyridin-2-yl)-3-hydroxypiperidin-4-yl)-2,6-difluorobenzamide] | – | – | – | – | ≥ 10 | 2.1 | –
CCOc1cc(-c2ccc(N3CC4CC(C3)N4Cc3ccc(OC)nc3)nc2)c2c3cc[nH]c3nn2c1 [Compound 297, 6-ethoxy-4-(6-(6-((6-methoxypyridin-3-yl)methyl)-3,6-diazabicyclo[3.1.1]heptan-3-yl)pyridin-3-yl)-1H-pyrrolo[2′,3′:3,4]pyrazolo[1,5-α]pyridine] | – | – | – | – | – | – | 9.6
